From patent US20180028473A1, “NUTRIENTS SOLUTIONS” (Mitochondrial Substrate Invention Ltd., priority 2014, published 2018)

How the values were obtained:
[1] = test system: Cognitively healthy young adult male Wistar rats; assay: Passive avoidance test, scopolamine given 7 days after end of supplementation; format: in vivo, rat
Description: Cognitively healthy young adult male Wistar rats weighing 260-280 g were randomly ascribed to groups and supplemented daily with aqueous solution of 5 mg/kg of compound of formula (I) in water of the invention for seven consecutive days. Then, after the break in the supplementation for next seven days, scopolamine 1 mg/kg i.p. or vehicle was administered (at day 14) 30 min before the acquisition trial in the passive avoidance test (“Compound (I)+Scopolamine” group). In “Vehicle+Vehicle” group, rats received vehicle for seven consecutive days and then vehicle 30 min before the acquisition trial in the passive avoidance test at 14th day. In “Vehicle+Scopolamine” group, rats received vehicle for seven consecutive days and then scopolamine 1 mg/kg i.p. 30 min before the acquisition trial in the passive avoidance test at 14th day. […] Passive avoidance test requires the rats to behave contrary to their innate tendencies for preference of dark areas and avoidance of bright ones. The apparatus used in this test is composed by a dark compartment and a bright compartment. The latency to enter the dark chamber was measured using 300 s maximum trial duration. In the acquisition trial, the animal received a 0.4 mA electric shock for 3 s when entering the dark chamber. Retention trial was performed 24 h after the acquisition trial. […]

[2] = in vivo; cited from earlier work

C[N+](C)(C)CCO [compound of formula (I), choline succinate (2:1)]
Relative risk of disturbance of cognitive function ([1]; as compared to Vehicle+Scopolamine group): 0.51
Rate of disturbance of cognitive function (latency <207 s) ([1]; retention trial, scopolamine 1 mg/kg i.p.): 0.36
elimination half-life [2]: less than 1.2 h
